Experimental data: patent US8088806B2 (Achillion Pharmaceuticals, Inc., priority 2005, dated 2012)
pEC50: −log10 of the molar value. Where a name gives a salt, the structure may show the parent alone.

test system: HCV replicon; experiment: Replicon based assay of HCV replication inhibition (NPT ELISA); type: cell-based, Hepatitis C virus; details: Hepatitis C virus, Huh-7, 72 h, Table I; Huh-7 HCV replicon-containing cells, three days; read-out: Activity
How it was run: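 NPT (neomycin phosphotransferase) content, proportional to replicon replication, quantified by capture ELISA on day four. Before that, replicon-bearing Huh-7 cells in G418-free screening medium were exposed three days at 37° C to compound, typically six doses from 10 to 0.03 micromolar, with equal DMSO across wells.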

Row | SMILES | pEC50
1 | CCCCCOc1ccc(Nc2ncc(C(=O)Nc3cccnc3)s2)cc1C(F)(F)F [compound 163, 2-(3-(trifluoromethyl)-4-(pentyloxy)phenylamino)-N-(pyridin-3-yl)thiazole-5-carboxamide] | > 6.00
2 | CCOC(=O)c1cc(-c2csc(Nc3cccc(OCc4ccccc4)c3)n2)on1 [compound 195, ethyl 5-(2-(3-(benzyloxy)phenylamino)thiazol-4-yl)isoxazole-3-carboxylate] | < 5.00
3 | CCCCCOc1ccc(Nc2nc(-c3ccc(F)cc3F)cs2)cn1 [compound 65, N-(4-(2,4-difluorophenyl)thiazol-2-yl)-6-(pentyloxy)pyridin-3-amine] | < 5.00
4 | CCCCCOc1ccc(Nc2nc(-c3cccnc3)cs2)cc1C(F)(F)F [compound 7, N-(3-(trifluorometbyl)-4-(pentyloxy)phenyl)-4-(pyridin-3-yl)thiazol-2-amine] | > 6.00
5 | c1cncc(-c2csc(Nc3ccc(-c4csnn4)cc3)n2)c1 [compound 102, N-(4-(1,2,3-thiadiazol-4-yl)phenyl)-4-(pyridin-3-yl)thiazol-2-amine] | < 5.00
6 | CCCCCOc1ccc(Nc2nc(-c3cccc(F)c3)cs2)cc1F [compound 174, N-(3-fluoro-4-(pentyloxy)phenyl)-4-(3-fluorophenyl)thiazol-2-amine] | > 6.00

same assay, conditions: Hepatitis C virus, Huh-7, 72 h, Table III; Huh-7 HCV replicon-containing cells, three days; read-out: Activity

Row | SMILES | pEC50
7 | CCCCCCCCc1ccc(Nc2nc(-c3ccc(O)c(C(N)=O)c3)cs2)cc1 [compound 545, 5-(2-(4-octylphenylamino)thiazol-4-yl)-2-hydroxybenzamide] | > 6.00
8 | FC(F)(F)c1cc(Nc2nc(-c3cnccn3)cs2)ccc1OC1CCCC1 [compound 606, N-(4-(cyclopentyloxy)-3-(trifluoromethyl)phenyl)-4-(pyrazin-2-yl)thiazol-2-amine] | > 6.00
9 | CCCCCCCOc1ccc(Nc2nc(-c3ccc(NC)nc3)cs2)cc1 [compound 523, 5-(2-(4-(heptyloxy)phenylamino)thiazol-4-yl)-N-methylpyridin-2-amine] | > 6.00
10 | CCCCCCCCOc1ccc(Nc2nc(-c3cnccn3)cs2)cc1C(F)(F)F [compound 596, N-(3-(trifluoromethyl)-4-(octyloxy)phenyl)-4-(pyrazin-2-yl)thiazol-2-amine] | > 6.00
11 | CCCCCCCCOc1ccc(Nc2nc(-c3ccc(S(N)(=O)=O)cc3)cs2)cc1C(F)(F)F [compound 712] | > 6.00
12 | CCCCCN(C)c1ccc(Nc2nc(Cc3ccc(F)cc3)cs2)cc1C(F)(F)F [compound 631, N^4-(4-(4-fluorobenzyl)thiazol-2-yl)-2-(trifluoromethyl)-N^1-methyl-N^1-pentylbenzene-1,4-diamine] | < 5.00
13 | CCCCCCCc1ccc(Nc2nc(-c3ccc(Cl)cc3)cs2)cc1 [compound 567, 4-(4-chlorophenyl)-N-(4-heptylphenyl)thiazol-2-amine] | > 6.00
14 | Fc1cc(Nc2nc(-c3ccc(-n4ccnc4)cc3)cs2)ccc1OCC1CCCCC1 [compound 719, 4-(4-(1H-imidazol-1-yl)phenyl)-N-(4-(cyclohexylmethoxy)-3-fluorophenyl)thiazol-2-amine] | > 6.00

same assay, conditions: Hepatitis C virus, replicon based assay of HCV replication inhibition; Table II; read-out: Activity

Row | SMILES | pEC50
15 | CCCCCOc1ccc(Nc2nc(-c3cccc(C(=O)O)c3)cs2)cc1C(F)(F)F [compound 408, 3-(2-(3-(trifluoromethyl)-4-(pentyloxy)phenylamino)thia-zol-4-yl)benzoic acid] | > 6.00
16 | CCCCCOc1ccc(Nc2nc(-c3ccc(NC(C)=O)cc3)cs2)cc1F [compound 439, N-(4-(2-(3-fluoro-4-(pentyloxy)phenylamino)thia-zol-4-yl)phenyl)acetamide] | > 6.00
17 | CCCCCCCCN(C)c1ccc(Nc2nc(-c3cccnc3)cs2)cc1C(F)(F)F [compound 477, 2-(trifluoromethyl)-N^1-methyl-N^1-octyl-N^4-(4-(pyridin-3-yl)thiazol-2-yl)benzene-1,4-diamine] | > 6.00
18 | COc1ccc(-c2csc(Nc3ccc(OCC4CC4)c(C(F)(F)F)c3)n2)cc1 [compound 250, N-(4-(cyclopropylmethoxy)-3-(trifluoromethyl)phenyl)-4-(4-methoxyphenyl)thiazol-2-amine] | > 6.00
19 | O=C1COc2ccc(-c3csc(Nc4ccc(OC5CCCC5)c(C(F)(F)F)c4)n3)cc2N1 [compound 251, 6-(2-(4-(cyclopentyloxy)-3-(trifluoromethyl)phenyl-amino)thiazol-4-yl)-2H-benzo[b][1,4]oxazin-3(4H)-one] | > 6.00
20 | CCCCCOc1ccc(Nc2nc(-c3c[nH]c4ccccc34)cs2)cc1C(F)(F)F [compound 410, N-(3-(trifluoromethyl)-4-(pentyloxy)phenyl)-4-(1H-indol-3-yl)thiazol-2-amine] | > 6.00
21 | c1ccc(Oc2cccc(Nc3nc(-c4ccncc4)cs3)c2)cc1 [compound 366, N-(3-phenoxyphenyl)-4-(pyridin-4-yl)thiazol-2-amine] | > 6.00
22 | CCCCCCCCOc1ccc(Nc2nc(-c3cccnc3)cs2)cn1 [compound 469, 6-(octyloxy)-N-0(4-(pyridin-3-yl)thiazol-2-yl)pyridin-3-amine] | 5.00 to 6.00
23 | CCCCCOc1ccc(Nc2nc(CN3CCCC(C)C3)cs2)cc1F (stereo not drawn) [compound 296, N-(3-fluoro-4-(pentyloxy)phenyl)-4-((3-methylpiperidin-1-yl)methyl)thiazol-2-amine] | 5.00 to 6.00
24 | CCCCCN(C)c1ccc(Nc2nc(-c3ccc(C)nc3)cs2)cc1C(F)(F)F [compound 454, 2-(trifluoromethyl)-N^1-methyl-N^4-(4-(6-methylpyridin-3-yl)thiazol-2-yl)-N^1-pentylbenzene-1,4-diamine] | > 6.00
25 | Cc1sc(Nc2ccc(OCC(C)C)c(C(F)(F)F)c2)nc1-c1ccc(CC(=O)O)cc1 [compound 246, 2-(4-(2-(4-isobutoxy-3-(trifluoromethyl)phenyl-amino)-5-methylthiazol-4-yl)phenyl)acetic acid] | 5.00 to 6.00
26 | CC(=O)OCCCCCCN(C)c1ccc(Nc2nc(-c3ccc(C)nc3)cs2)cc1C(F)(F)F [compound 466] | 5.00 to 6.00
27 | CCCCCOc1ccc(Nc2nc(CN3CCN(Cc4ccccn4)CC3)cs2)cc1F [compound 281, N-(3-fluoro-4-(pentyloxy)phenyl)-4-((4-(pyridin-2-ylmethyl)piperiazin-1-yl)methyl)thiazol-2-amine] | > 6.00
28 | CCCCCOc1ccc(Nc2nc(-c3ccc(O)nc3)cs2)cc1C(F)(F)F [compound 377, 5-(2-(4-(pentyloxy)-3-(trifluoromethyl)phenyl-amino)thiazol-4-yl)pyridin-2-ol] | > 6.00
29 | CCCCCOc1ccc(Nc2nc(C3CCCNC3)cs2)cc1C(F)(F)F (stereo not drawn) [compound 225, N-(4-(pentyloxy)-3-(trifluoromethyl)phenyl)-4-(piperidin-3-yl)thiazol-2-amine hydrochloride] | 5.00 to 6.00

same assay, conditions: Hepatitis C virus, replicon based assay of HCV replication inhibition; Table IV; read-out: Activity

Row | SMILES | pEC50
30 | FC(F)(F)c1cc(Nc2nc(-c3cccnc3)cs2)ccc1CCCCCc1ccccc1 [compound 938, N-(3-(trifluoromethyl)-4-(5-phenylpentyl)phenyl)-4-(pyridin-3-yl)thiazol-2-amine] | > 6.00
31 | FC(F)(F)c1cc(Nc2nc(-c3cccnc3)cs2)ccc1Cl [compound 881, N-(4-chloro-3-(trifluoromethyl)phenyl)-4-(pyridin-3-yl)thiazol-2-amine] | > 6.00
32 | CC(=O)Nc1ccc(Nc2nc(-c3cccnc3)cs2)cc1 [compound 878, N-(4-(4-(pyridin-3-yl)thiazol-2-ylamino)phenyl)acetamide] | < 5.00
33 | COc1ccc(Nc2nc(-c3cccnc3)cs2)cc1 [compound 886, N-(4-methoxyphenyl)-4-(pyridin-3-yl)thiazol-2-amine] | < 5.00
34 | CCOC(=O)/C=C/c1ccc(Nc2nc(-c3cccnc3)cs2)cc1 [compound 907, (E)-ethyl 3-(4-(4-(pyridin-3-yl)thiazol-2-ylamino)phenyl)acrylate] | < 5.00
35 | COc1ncc(-c2csc(Nc3ccc(CCCCCc4ccccc4)c(C(F)(F)F)c3)n2)cn1 [compound 939, N-(3-(trifluoromethyl)-4-(5-phenylpentyl)phenyl)-4-(2-methoxypyrimidin-5-yl)thiazol-2-amine] | > 6.00
36 | CCCCCCCCOc1ccc(Nc2nc(-c3ccc(CN)nc3)cs2)cc1C(F)(F)F [compound 844, 4-(6-(aminomethyl)pyridin-3-yl)-N-(3-(trifluoromethyl)-4-(octyloxy)phenyl)thiazol-2-amine] | > 6.00
37 | C#CCCOc1ccc(Nc2nc(-c3cccnc3)cs2)cc1C(F)(F)F [compound 937, N-(4-(but-3-ynyloxy)-3-(trifluoromethyl)phenyl)-4-(pyridin-3-yl)thiazol-2-amine] | > 6.00
38 | CCCCCCCCOc1ccc(Nc2nc(-c3ccc(CNC(=O)OC(C)(C)C)nc3)cs2)cc1C(F)(F)F [compound 843, tert-butyl (5-(2-(3-(trifluoromethyl)-4-(octyloxy)phenylamino)thiazol-4-yl)pyridin-2-yl)methylcarbamate] | > 6.00
39 | CCCCCCCCOc1ccc(Nc2nc(-c3nc(C(=O)OCC)cs3)cs2)cc1C(F)(F)F [compound 731, ethyl 2-(2-(3-(trifluoromethyl)-4-(octyloxy)phenylamino)thiazol-4-yl)thiazole-4-carboxylate] | > 6.00
40 | CN1Cc2c(Nc3nc(-c4cccnc4)cs3)cccc2C(c2ccccc2)C1 (stereo not drawn) [compound 743, 1,2,3,4-tetrahydro-2-methyl-4-phenyl-N-(4-(pyridin-3-yl)thiazol-2-yl)isoquinolin-8-amine] | < 5.00
41 | Fc1cc(Nc2nc(-c3cccc4nsnc34)cs2)ccc1OCC1CCCCC1 [compound 722, 4-(benzo[c][1,2,5]thiadiazol-4-yl)-N-(4-(cyclohexylmethoxy)-3-fluorophenyl)thiazol-2-amine] | 5.00 to 6.00
42 | CC(C)(C)c1ccc(Nc2nc(-c3cccnc3)cs2)cc1 [compound 892, N-(4-tert-butylphenyl)-4-(pyridin-3-yl)thiazol-2-amine] | 5.00 to 6.00
